Assay results published in patent US9958436B2, “Determination of cell chirality” (THE TRUSTEES OF COLUMBIA UNIVERSITY IN THE CITY OF NEW YORK, priority 2011, dated 2018).

How the values were obtained:
C2C12 cells [1] = assay: Effects of culture conditions (substrate protein coating, calcium chelator) on cell chirality; type: cell-based, mouse; details: count of rings
Procedure: An adhesive SAM octadecanethiol (Sigma) was transferred onto the gold-coated (150 Å in thickness) glass slide with the PDMS stamp (see e.g., FIG. 1) (L. Q. Wan et al., Integr Biol (Camb) 2, 346 (Aug. 10, 2010)). The slide was then immersed in a non-adhesive ethylene glycol-terminated SAM (HS-(CH2)11-EG3, Prochimia, Poland) for 3 hours. Finally, patterned surfaces were washed with ethanol and coated with 10 μg/ml fibronectin (Sigma) for 30 minutes.
(§1) Cells were maintained in tissue flasks with culture media specified in TABLE 2. After reaching 70% confluency, cells were trypsinized and seeded onto protein-coated patterned surfaces. Once the cells attached, extra cells were washed off with fresh medium. At this time drugs were added into the culture medium if necessary. Phase contrast images were taken after overnight incubation at 37° C. and 5% CO2 when cells reached confluency on the ring patterns.
(§2) High-resolution phase contrast images of live patterned cells were taken at a resolution of ˜0.645 μm/pixel, and analyzed using a custom-written code in MatLab (MathWorks, Natick, Mass.), based on the automated detection of intensity gradient and circular statistics (W. J. Karlon et al., Ann Biomed Eng 27, 712 (November-December, 1999)). In this algorithm, the intensity gradient was determined pixel by pixel with a Gaussian differential filter. In each sub-region of the image, the dominant local direction was determined using an accumulator scheme, in which the orientation of each pixel follows a von Mises distribution, a circular analogue of the linear normal distribution. Subsequently, the orientation in each sub-region was converted into an angle bias based on its deviation from the circumferential direction (see e.g., FIG. 2C). Mean angle and standard deviation of LR asymmetry were calculated for all sub-regions, using circular statistics (N. I. Fish, Statistical Analysis of Circular Data. (Cambridge University Press, Cambridge, UK, 1993)). […] The sub-region size was therefore set to 20 by 20 pixels (i.e., 13 by 13 μm).
(§3) Cell chirality on ring patterns (i.e., clockwise or counterclockwise alignment) was determined from calculated biased angles in local regions with one sample test for the mean angle, analogous to the one sample t-test in linear statistics (N. I. Fish, Statistical Analysis of Circular Data. (Cambridge University Press, Cambridge, UK, 1993)).
The geometric boundaries determined organelle positioning (i.e., x-axis), with centrosomes (bright green, see e.g., FIG. 4B) and Golgi apparatus (red, see e.g., FIG. 4C) being positioned closer to the boundaries than the cell nucleus (blue) (R. A. Desai, L. Gao, S. Raghavan, W. F. Liu, C. S. Chen, J Cell Sci 122, 905 (Apr. 1, 2009)), independent of the gravitational direction. In addition, cell chirality was maintained on patterns with different surface chemistry, and after the disruption of cadherin function (see e.g., FIG. 1, TABLE 6, TABLE 7).

C2C12 cells [2] = assay: Cell chirality (alignment) on micropatterned rings, drug treatment, C2C12; type: cell-based, mouse; details: for CCW: counter-clockwise alignment / CW: clockwise alignment / N/S: not significantly biased to CW or CCW: C2C12 on ring patterns, count of rings
Procedure: as §1
(§4) To examine the role of actin in left-right (LR) asymmetry, cells were tested with 20-500 nM Latrunculin A, 0.05-1.0 μg/ml Cytochalasin D, and 1-100 nM Jasplakinolide. Latrunculin A inhibits actin polymerization by forming a 1:1 molar complex with G-actin, thereby inhibiting its ability to polymerize into F-actin (M. Coue, S. L. Brenner, I. Spector, E. D. Korn, FEBS Lett 213, 316 (Mar. 23, 1987)). Cytochalasin D inhibits actin polymerization by binding to the growing ends of F-actin chains and thus preventing the attachment and addition of G-actin monomers (J. A. Cooper, J Cell Biol 105, 1473 (October, 1987)). Jasplakinolide is known to bind to and stabilize actin filaments in vitro (M. R. Bubb, I. Spector, B. B. Beyer, K. M. Fosen, J Biol Chem 275, 5163 (Feb. 18, 2000)).
(§5) To examine the role of microtubules in LR asymmetry, 0.2-2 μM Nocodazole, and 0.3-30 nM Taxol were used. Nocodazole suppresses microtubule dynamics by destabilizing and disassembling microtubules (J. A. Cooper, J Cell Biol 105, 1473 (October, 1987)). Taxol inhibits the microtubule depolymerization and stabilizes microtubules (W. B. Derry, L. Wilson, M. A. Jordan, Biochemistry 34, 2203 (Feb. 21, 1995)).
To examine the role of the actomyosin motor, cells were tested with […], […], and 0.5-10 […]. Y-27632 works as a selective inhibitor to prevent the phosphorylation of the myosin regulatory light chain (T. Ishizaki et al., Mol Pharmacol 57, 976 (May, 2000)). ML-7 acts as a selective inhibitor of the myosin light chain kinase (M. Isemura, T. Mita, K. Satoh, K. Narumi, M. Motomiya, Cell Biol Int Rep 15, 965 (October, 1991)). Blebbistatin forms a low actin affinity complex through binding to myosin heads, causing the inhibition of nonmuscle myosin II ATPase activity (M. Kovacs, J. Toth, C. Hetenyi, A. Malnasi-Csizmadia, J. R. Sellers, J Biol Chem 279, 35557 (Aug. 20, 2004)).
as §2, §3

hUVEC cells = assay: Cell chirality (alignment) on micropatterned rings, drug treatment, hUVEC; type: cell-based, human; details: hUVEC on ring patterns, count of rings
Procedure: as §1, §4, §5, §2, §3

[3] = calcium chelator added to culture, 0.5 mM
[4] = calcium chelator added to culture, 2 mM
[5] = substrate protein coating of the pattern

O=C(O)CN(CCOCCOCCN(CC(=O)O)CC(=O)O)CC(=O)O [EGTA]
CCW: counter-clockwise alignment (C2C12 cells [1]; [3]): 24 | CW: clockwise alignment (C2C12 cells [1]; [3]): 0 | N/S: not significantly biased to CW or CCW (C2C12 cells [1]; [3]): 2 | CCW: counter-clockwise alignment (C2C12 cells [1]; [4]): 12 | CW: clockwise alignment (C2C12 cells [1]; [4]): 1 | N/S: not significantly biased to CW or CCW (C2C12 cells [1]; [4]): 3

Laminin
CCW: counter-clockwise alignment (C2C12 cells [1]; [5]): 34 | CW: clockwise alignment (C2C12 cells [1]; [5]): 2 | N/S: not significantly biased to CW or CCW (C2C12 cells [1]; [5]): 2

Fibronectin
CCW: counter-clockwise alignment (C2C12 cells [1]; [5]): 32 | CW: clockwise alignment (C2C12 cells [1]; [5]): 1 | N/S: not significantly biased to CW or CCW (C2C12 cells [1]; [5]): 4

CC(=O)O[C@H]1C(=O)[C@@]2(C)[C@H]([C@H](OC(=O)c3ccccc3)[C@]3(O)C[C@H](OC(=O)[C@H](O)[C@@H](NC(=O)c4ccccc4)c4ccccc4)C(C)=C1C3(C)C)[C@]1(OC(C)=O)CO[C@@H]1C[C@@H]2O [Taxol]
effect on cell chirality (C2C12 cells [2]; C2C12, inhibitors of tubulin dynamics at concentrations below those resulting in cell apoptosis): did not change cell chirality | CCW: counter-clockwise alignment (C2C12 cells [2]; drug 0.3 nM): 24 | CW: clockwise alignment (C2C12 cells [2]; drug 0.3 nM): 1 | N/S: not significantly biased to CW or CCW (C2C12 cells [2]; drug 0.3 nM): 3 | CCW: counter-clockwise alignment (C2C12 cells [2]; drug 1 nM): 20 | CW: clockwise alignment (C2C12 cells [2]; drug 1 nM): 1 | N/S: not significantly biased to CW or CCW (C2C12 cells [2]; drug 1 nM): 6 | CCW: counter-clockwise alignment (C2C12 cells [2]; drug 3 nM): 31 | CW: clockwise alignment (C2C12 cells [2]; drug 3 nM): 2 | N/S: not significantly biased to CW or CCW (C2C12 cells [2]; drug 3 nM): 9 | CCW: counter-clockwise alignment (C2C12 cells [2]; drug 10 nM): 17 | CW: clockwise alignment (C2C12 cells [2]; drug 10 nM): 2 | N/S: not significantly biased to CW or CCW (C2C12 cells [2]; drug 10 nM): 8 | CCW: counter-clockwise alignment (C2C12 cells [2]; drug 30 nM): 16 | CW: clockwise alignment (C2C12 cells [2]; drug 30 nM): 2 | N/S: not significantly biased to CW or CCW (C2C12 cells [2]; drug 30 nM): 13 | CCW: counter-clockwise alignment (hUVEC cells; drug 0.3 nM): 0 | CW: clockwise alignment (hUVEC cells; drug 0.3 nM): 8 | N/S: not significantly biased to CW or CCW (hUVEC cells; drug 0.3 nM): 0 | CCW: counter-clockwise alignment (hUVEC cells; drug 1 nM): 1 | CW: clockwise alignment (hUVEC cells; drug 1 nM): 34 | N/S: not significantly biased to CW or CCW (hUVEC cells; drug 1 nM): 4 | CCW: counter-clockwise alignment (hUVEC cells; drug 3 nM): 2 | CW: clockwise alignment (hUVEC cells; drug 3 nM): 7 | N/S: not significantly biased to CW or CCW (hUVEC cells; drug 3 nM): 9 | CCW: counter-clockwise alignment (hUVEC cells; drug 10 nM): 5 | CW: clockwise alignment (hUVEC cells; drug 10 nM): 10 | N/S: not significantly biased to CW or CCW (hUVEC cells; drug 10 nM): 11 | CCW: counter-clockwise alignment (hUVEC cells; drug 30 nM): 2 | CW: clockwise alignment (hUVEC cells; drug 30 nM): 4 | N/S: not significantly biased to CW or CCW (hUVEC cells; drug 30 nM): 7
